Publication PMC8286840, “Identifying SARS-CoV-2 antiviral compounds by screening for small molecule inhibitors of Nsp3 papain-like protease” (Biochemical Journal, 2021)
Where a name gives a salt, the structure may show the parent alone. Read-outs that look alike come from different tables or passages of the source.

What was measured:
[1] = biological target: T1, SARS-CoV-2 PLpro (nsp3 1564–1878) (Severe acute respiratory syndrome coronavirus 2, UniProt P0DTD1); assay: biochemical; parameters: FRET-quenched peptide (Pro3) cleavage by PLpro, 10 min pre-incubation, slope over 20 min, normalised to no-compound control; details: high concentration screen, read-out: % of control remaining
[2] = biological target: T1, SARS-CoV-2 PLpro (nsp3 1564–1878); assay: biochemical; parameters: FRET-quenched peptide (Pro3) cleavage by PLpro, 10 min pre-incubation, slope over 20 min, normalised to no-compound control; details: low concentration screen, read-out: % of control remaining

## C[C@H]1OC[C@@H](C[N+](C)(C)C)O1 [(+)-cis-Dioxolane iodide]
[1]; Well no.=579
  remaining activity at 3.75 µM: 100%
[2]; Well no.=579
  remaining activity at 1.25 µM: 103%

## Oc1ccc([C@H]2COc3cc(O)ccc3C2)cc1 [(-)-(S)-Equol]
[1]; Well no.=7405
  remaining activity at 3.75 µM: 107%
[2]; Well no.=7405
  remaining activity at 1.25 µM: 110%

## c1cc2c(cc1[C@H]1OC[C@@H]3[C@H]1CO[C@H]3c1ccc3c(c1)OCO3)OCO2 [(-)-Asarinin]
[1]; Well no.=3160
  remaining activity at 3.75 µM: 101%
[2]; Well no.=3160
  remaining activity at 1.25 µM: 98.8%

## N[C@H](CC(=O)O)C(=O)O [(-)-Aspartic acid]
[1]; Well no.=7063
  remaining activity at 3.75 µM: 102%
[2]; Well no.=7063
  remaining activity at 1.25 µM: 103%

## C=C[C@H]1CN2CC[C@H]1C[C@H]2[C@H](O)c1ccnc2ccccc12 [(-)-Cinchonidine]
[1]; Well no.=3196
  remaining activity at 3.75 µM: 102%
[2]; Well no.=3196
  remaining activity at 1.25 µM: 101%

## CN1C(=O)CC[C@H]1c1cccnc1 [(-)-Cotinine]
[1]; Well no.=228
  remaining activity at 3.75 µM: 99.4%
[1]; Well no.=3103
  remaining activity at 3.75 µM: 101%
[2]; Well no.=228
  remaining activity at 1.25 µM: 97.9%
[2]; Well no.=3103
  remaining activity at 1.25 µM: 99.3%

## O=c1cccc2n1C[C@H]1CNC[C@H]2C1 [(-)-Cytisine]
[1]; Well no.=3797
  remaining activity at 3.75 µM: 101%
[2]; Well no.=3797
  remaining activity at 1.25 µM: 97.8%

## CC[C@]12CCCN3CCc4c(n(c5ccccc45)C(=O)C1)[C@@H]32 [(-)-Eburnamonine]
[1]; Well no.=3380
  remaining activity at 3.75 µM: 95%
[2]; Well no.=3380
  remaining activity at 1.25 µM: 96.6%

## Oc1cc(O)c2c(c1)O[C@H](c1ccc(O)c(O)c1)[C@H](O)C2 [(-)-Epicatechin]
[1]; Well no.=3348
  remaining activity at 3.75 µM: 98.5%
[2]; Well no.=3348
  remaining activity at 1.25 µM: 96.9%

## CNC[C@H](O)c1ccc(O)c(O)c1 [(-)-Epinephrine bitartrate]
[1]; Well no.=509
  remaining activity at 3.75 µM: 99.3%
[2]; Well no.=509
  remaining activity at 1.25 µM: 102%

## CN1CC[C@@]2(C)c3cc(O)ccc3N(C)[C@@H]12 [(-)-Eseroline fumarate]
[1]; Well no.=751
  remaining activity at 3.75 µM: 93.5%
[2]; Well no.=751
  remaining activity at 1.25 µM: 96.8%

## C[C@H](O)[C@@H](O)[C@@H](O)[C@H](O)C=O [(-)-Fucose]
[1]; Well no.=6549
  remaining activity at 3.75 µM: 91.4%
[2]; Well no.=6549
  remaining activity at 1.25 µM: 98.1%

## C[C@H]1CC[C@@H](C(C)(C)O)CC2=C1CC[C@@H]2C [(-)-Guaiol]
[1]; Well no.=3076
  remaining activity at 3.75 µM: 99.3%
[2]; Well no.=3076
  remaining activity at 1.25 µM: 98.4%

## CC(C)NC[C@H](O)c1ccc(O)c(O)c1 [(-)-Isoproterenol hydrochloride]
[1]; Well no.=917
  remaining activity at 3.75 µM: 106%
[2]; Well no.=917
  remaining activity at 1.25 µM: 107%

## COC(=O)[C@H]1[C@H]2C[C@H]3c4[nH]c5cc(OC)ccc5c4CCN3C[C@H]2C[C@@H](OC(=O)c2cc(OC)c(OC)c(OC)c2)[C@@H]1OC [(-)-Isoreserpine]
[1]; Well no.=3246
  remaining activity at 3.75 µM: 100%
[2]; Well no.=3246
  remaining activity at 1.25 µM: 102%

## C[C@@]12N[C@@H](Cc3ccccc31)c1ccccc12 [(-)-MK-801 hydrogen maleate]
[1]; Well no.=799
  remaining activity at 3.75 µM: 99.2%
[2]; Well no.=799
  remaining activity at 1.25 µM: 101%

## COc1ccc2cc([C@@H](C)C(=O)O)ccc2c1 [(-)-Naproxen sodium]
[1]; Well no.=1110
  remaining activity at 3.75 µM: 97.6%
[2]; Well no.=1110
  remaining activity at 1.25 µM: 95.3%

## CN1CCC[C@H]1c1cccnc1 [(-)-Nicotine]
[1]; Well no.=3328
  remaining activity at 3.75 µM: 99.2%
[2]; Well no.=3328
  remaining activity at 1.25 µM: 96.5%

## CCCN1CCC[C@@H]2Cc3[nH]ncc3C[C@H]21 [(-)-Quinpirole hydrochloride]
[1]; Well no.=1269
  remaining activity at 3.75 µM: 99.7%
[2]; Well no.=1269
  remaining activity at 1.25 µM: 96.5%

## C[N+]1(C)[C@@H]2C[C@@H](OC(=O)[C@H](CO)c3ccccc3)C[C@H]1[C@@H]1O[C@@H]12 [(-)-Scopolamine methyl bromide]
[1]; Well no.=1510
  remaining activity at 3.75 µM: 97.5%
[2]; Well no.=1510
  remaining activity at 1.25 µM: 96.7%

## CCN1CCC[C@H]1CNC(=O)c1cc(S(N)(=O)=O)ccc1OC [(-)-Sulpiride]
[1]; Well no.=1364
  remaining activity at 3.75 µM: 99.2%
[2]; Well no.=1364
  remaining activity at 1.25 µM: 101%

## CC1=C(O)C(=O)[C@@H]2O[C@@H]2C1=O [(-)-Terreic acid - (1R,6S)-3-Hydroxy-4-methyl-7-oxabicyclo[4.1.0]hept-3-ene-2,5-dione]
[1]; Well no.=2398
  remaining activity at 3.75 µM: 104%
[2]; Well no.=2398
  remaining activity at 1.25 µM: 99.2%

## NC(=O)c1cccc(NC(=O)/C=C/c2c[nH]c3ccccc23)c1 [(E)-3-(3-(1H-indol-3-yl)acrylamido)benzamide]
[1]; Well no.=5576
  remaining activity at 3.75 µM: 93.4%
[2]; Well no.=5576
  remaining activity at 1.25 µM: 93.5%

## NC/C=C/C(=O)O [(E)-4-amino-2-butenoic acid]
[1]; Well no.=1283
  remaining activity at 3.75 µM: 101%
[2]; Well no.=1283
  remaining activity at 1.25 µM: 103%

## O=c1[nH]c(=O)n([C@H]2C[C@H](O)[C@@H](CO)O2)cc1/C=C/Br [(E)-5-(2-Bromovinyl)-2'-deoxyuridine]
[1]; Well no.=83
  remaining activity at 3.75 µM: 94.4%
[2]; Well no.=83
  remaining activity at 1.25 µM: 94.9%

## Clc1ccc(N/N=C(\c2ccccc2)c2ccccn2)nc1 [(E)-5-chloro-2-(2-(phenyl(pyridin-2-yl)methylene)hydrazinyl)pyridine]
[1]; Well no.=5428
  remaining activity at 3.75 µM: 96.4%
[2]; Well no.=5428
  remaining activity at 1.25 µM: 91.3%

## COc1cc(/C=C/C(=O)NCCn2c(C)cc3ccccc32)cc(OC)c1OC [(E)-N-(2-(2-methyl-1H-indol-1-yl)ethyl)-3-(3,4,5-trimethoxyphenyl)acrylamide]
[1]; Well no.=5914
  remaining activity at 3.75 µM: 99.4%
[2]; Well no.=5914
  remaining activity at 1.25 µM: 103%

## O=C(O)[C@H]1Cc2ccccc2CN1 [(R)-1,2,3,4-Tetrahydro-3-isoquinolinecarboxylic acid]
[1]; Well no.=8608
  remaining activity at 3.75 µM: 101%
[2]; Well no.=8608
  remaining activity at 1.25 µM: 102%

## CC(C)C[C@@H](C(=O)O)c1cc(-c2ccc(C(F)(F)F)cc2)cc(-c2ccc(C(F)(F)F)cc2)c1 [(R)-2-(4,4''-bis(trifluoromethyl)-[1,1':3',1''-terphenyl]-5'-yl)-4-methylpentanoic acid]
[1]; Well no.=5455
  remaining activity at 3.75 µM: 106%
[2]; Well no.=5455
  remaining activity at 1.25 µM: 99.6%

## COc1ccc(CC[C@H]2CCC[C@@H](CCc3ccc(OC)cc3)N2C[C@@H](O)CO)cc1 [(R)-3-((2R,6S)-2,6-bis(4-methoxyphenethyl)piperidin-1-yl)propane-1,2-diol hydrochloride]
[1]; Well no.=5614
  remaining activity at 3.75 µM: 102%
[2]; Well no.=5614
  remaining activity at 1.25 µM: 101%

## C[C@@H](O)CC(=O)O [(R)-3-Hydroxybutanoic acid]
[1]; Well no.=7123
  remaining activity at 3.75 µM: 105%
[2]; Well no.=7123
  remaining activity at 1.25 µM: 106%

## CC(C)N(CC[C@H](c1ccccc1)c1cc(CO)ccc1O)C(C)C [(R)-5-Hydroxymethyl Tolterodine]
[1]; Well no.=7038
  remaining activity at 3.75 µM: 107%
[2]; Well no.=7038
  remaining activity at 1.25 µM: 107%

## [2H]C([2H])([2H])NC[C@H](O)c1cccc(O)c1 [(R)-(-)-Phenylephrine (hydrochloride)]
[1]; Well no.=6707
  remaining activity at 3.75 µM: 95.4%
[2]; Well no.=6707
  remaining activity at 1.25 µM: 98.6%

## NCc1c[nH]c(=S)n1[C@@H]1CCc2c(F)cc(F)cc2C1 [(R)-Nepicastat HCl]
[1]; Well no.=8886
  remaining activity at 3.75 µM: 92%
[2]; Well no.=8886
  remaining activity at 1.25 µM: 91.4%
